Test results published in publication PMC9030691, “Toxicokinetics of β-Amanitin in Mice and In Vitro Drug–Drug Interaction Potential” (Pharmaceutics, 2022).
Read-outs that look alike come from different tables or passages of the source.

Tests used:
[1] = biological target: T1, CYP2C19 (Homo sapiens, UniProt P33261); assay: CYP2C19 inhibition in human liver microsomes; assay type: in vitro ADME; details: ultrapooled human liver microsomes 0.2 mg/mL, 100 μM [S]-mephenytoin, β-amanitin 0.1–100 μM, pH 7.4, 37 °C, 15 min, LC-MS/MS, n = 3, read-out: IC50, CYP2C19 [S]-mephenytoin 4′-hydroxylase
T1 construct: from tissue; host or cells: ultrapooled human liver microsomes
T1 sequence (P33261 whole entry): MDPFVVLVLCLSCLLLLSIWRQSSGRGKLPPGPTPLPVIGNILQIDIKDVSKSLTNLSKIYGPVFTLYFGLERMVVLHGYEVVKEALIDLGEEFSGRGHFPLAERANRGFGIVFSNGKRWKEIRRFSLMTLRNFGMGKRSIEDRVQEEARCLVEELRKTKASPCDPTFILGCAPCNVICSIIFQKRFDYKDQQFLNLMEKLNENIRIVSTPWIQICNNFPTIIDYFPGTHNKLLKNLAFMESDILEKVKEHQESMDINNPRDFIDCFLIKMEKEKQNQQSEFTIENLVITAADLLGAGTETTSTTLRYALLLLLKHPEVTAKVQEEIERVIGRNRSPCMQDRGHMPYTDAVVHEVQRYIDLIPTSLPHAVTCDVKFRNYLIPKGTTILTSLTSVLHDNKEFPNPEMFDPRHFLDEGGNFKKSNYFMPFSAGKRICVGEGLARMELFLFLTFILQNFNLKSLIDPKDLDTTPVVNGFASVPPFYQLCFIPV
Protocol: (§1) β-amanitin inhibition (IC50 values) of CYP1A2, CYP2A6, CYP2B6, CYP2C8, CYP2C9, CYP2C19, CYP2D6, and CYP3A4 enzyme activities in HLMs were evaluated using LC-MS/MS and CYP substrates as previously described. Each incubation mixture was made up to a volume of 100 μL including HLMs (0.2 mg/mL), 50 mM potassium phosphate buffer (pH 7.4), 1.0 mM NADPH, 10 mM magnesium chloride, various concentrations of β-amanitin (0.1–100 μM), a cocktail of seven CYP probe substrates (50 μM phenacetin for CYP1A2, 2.5 μM coumarin for CYP2A6, 2 μM amodiaquine for CYP2C8, 10 μM diclofenac for CYP2C9, 100 μM [S]-mephenytoin for CYP2C19, 5 μM bufuralol for CYP2D6, and 2.5 μM midazolam for CYP3A4 in acetonitrile), or 50 μM bupropion for CYP2B6. The reactions were initiated with NADPH followed by incubation in a shaking water bath at 37 °C for 15 min with or without 30 min preincubation with NADPH. Reactions were stopped with 50 μL of ice-cold methanol containing ^13C2, ^15N-acetaminophen and d9-1′-hydroxybufuralol (ISs). Incubation mixtures were centrifuged at 13,000× g for 8 min at 4 °C. An aliquot (5 μL) of the supernatant from the reaction mixture was analyzed by the previous LC-MS/MS method.

[2] = biological target: T2, CYP2C8 (Homo sapiens, UniProt P10632); assay: CYP2C8 inhibition in human liver microsomes; assay type: in vitro ADME; details: ultrapooled human liver microsomes 0.2 mg/mL, 2 μM amodiaquine, β-amanitin 0.1–100 μM, pH 7.4, 37 °C, 15 min, LC-MS/MS, n = 3, read-out: IC50, CYP2C8 amodiaquine N-deethylase
T2 construct: enzyme activities in HLMs were evaluated using LC-MS/MS and CYP substrates; from tissue; host or cells: ultrapooled human liver microsomes
T2 sequence (P10632 1-490): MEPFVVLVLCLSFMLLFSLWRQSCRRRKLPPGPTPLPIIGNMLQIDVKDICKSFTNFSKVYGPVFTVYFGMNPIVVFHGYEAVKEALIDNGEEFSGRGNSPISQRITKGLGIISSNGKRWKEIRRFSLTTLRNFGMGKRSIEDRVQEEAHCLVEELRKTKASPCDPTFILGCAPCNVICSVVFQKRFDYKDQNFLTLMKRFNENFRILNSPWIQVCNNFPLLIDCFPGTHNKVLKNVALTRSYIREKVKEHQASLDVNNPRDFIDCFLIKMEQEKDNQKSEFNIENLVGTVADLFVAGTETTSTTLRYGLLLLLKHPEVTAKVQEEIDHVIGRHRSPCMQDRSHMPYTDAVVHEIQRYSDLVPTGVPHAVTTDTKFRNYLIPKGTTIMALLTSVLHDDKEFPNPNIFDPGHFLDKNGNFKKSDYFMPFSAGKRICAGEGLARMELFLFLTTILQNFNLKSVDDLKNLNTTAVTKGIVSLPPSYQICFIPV
Protocol: as §1

[3] = with 30 min NADPH preincubation

Measured: IC50

CC[C@H](C)[C@@H]1NC(=O)CNC(=O)[C@@H]2Cc3c([nH]c4cc(O)ccc34)[S@+]([O-])C[C@H](NC(=O)CNC1=O)C(=O)N[C@@H](CC(=O)O)C(=O)N1C[C@H](O)C[C@H]1C(=O)N[C@@H]([C@@H](C)[C@@H](O)CO)C(=O)N2 [β-amanitin]
> 100 µM: [1]; [3] | [1]; without NADPH preincubation | [2]; [3] | [2]; without NADPH preincubation
